In paper PMC3493622 (Organic & biomolecular chemistry, 2012):
Where two headings read alike, the source gives them in different places.

Assays:
[1] = test system: HEK293; assay: Cell survival in the NFκB assay; assay type: cell-based, Human; settings: for NFκB assay % survival: 50 μM, cell survival in comparison with vehicle-treated controls
[2] = test system: RAW 264.7 cells; assay: SRB cytotoxicity / cell survival under nitrite assay conditions; assay type: cell-based, murine; settings: for Nitrite assay % survival: 50 μM, cell survival in comparison with vehicle-treated controls, SRB
[3] = test system: NO production (iNOS) in LPS-stimulated RAW 264.7 cells; assay type: cell-based, murine; settings: for Nitrite assay % inhibition: screening concentration 50 μM, LPS 1 μg/mL, 20 h; for nitrite inhibitory activity (in words): tested up to 50 μM
[4] = test system: NFκB (luciferase reporter in human embryonic kidney cells 293); assay: NFκB luciferase assay; assay type: cell-based; settings: for NFκB assay % inhibition: screening concentration 50 μM, TNFα; for NFκB inhibitory activity (in words): at 50 μM
[5] = SRB cytotoxicity / cell survival under nitrite assay conditions; assay type: cell-based, murine; settings: mouse, RAW 264.7 cells

Compound: c1ccc(-c2cc3ccccc3[nH]2)cc1 [Compound 10aa, 2-phenyl-1H-indole]
- NFκB assay % survival [1]: 79.8±5.9%
- Nitrite assay % survival [2]: 66.7±4.0%

Compound: Cc1ccccc1-c1cc2cc([N+](=O)[O-])ccc2[nH]1 [Compound 10bb, 5-Nitro-2-o-toyl-1H-indole]
- NFκB assay % survival [1]: 119.2±8.6%
- Nitrite assay % inhibition [3]: 45.9±3.0%
- Nitrite assay % survival [2]: 89.2±9.5%
- NFκB assay % inhibition ([4]; 6 h): 60.6±3.2%

Compound: COc1cc(OC)cc(-c2cc3ccccc3[nH]2)c1 [Compound 10ag, 2-(3,5-Dimethoxyphenyl)-1H-indole]
- NFκB inhibitory activity (in words) [4]: inactive

Compound: CC(C)(C)OC(=O)n1c(-c2ccccc2)cc2ccccc21 [Compound 2f, N-Boc-2-phenylindole]
- IC50 at 20 h [5]: 38.2 ± 5 µM

Compound: c1ccc(C2Cc3ccccc3N2)cc1 (stereo not drawn) [Compound 3, 2-phenylindoline]
- nitrite inhibitory activity (in words) [3]: essentially inactive

Compound: C#CCn1c(-c2ccccc2)cc2ccccc21 [Compound 2d, 2-Phenyl-N-propargylindole]
- IC50 at 20 h [5]: 46.8 ± 1.9 µM

Compound: N#Cc1ccc2cc(-c3ccccc3)[nH]c2c1 [Compound 10ea, 6-Carbonitrile-2-phenyl-1H-indole]
- NFκB assay % survival [1]: 72.4±6.2%
- Nitrite assay % inhibition [3]: 45.6±2.5%
- Nitrite assay % survival [2]: 78.1±3.8%
- NFκB assay % inhibition ([4]; 6 h): 50.6±3.8%

Compound: Cc1ccc(-c2cc3ccccc3[nH]2)cc1 [Compound 10ac, 2-p-Tolyl-1H-indole]
- nitrite inhibitory activity (in words) [3]: essentially inactive

Compound: Cc1ccccc1-c1cc2ccccc2[nH]1 [Compound 10ab, 2-o-Tolyl-1H-indole]
- IC80 ([3]; Mus musculus, RAW264.7, read-out: IC80 concentration (nitrite inhibition)): 9.3 µM
- cell survival at the IC80 concentration ([2]; at 9.3 μM (IC80 of nitrite inhibition)): 94.5%
- IC50 at 20 h [5]: 32.9 ± 2.5 µM
- NFκB inhibitory activity (in words) [4]: inactive

Compound: CON=Cc1c(-c2ccccc2)[nH]c2ccccc12 [Compound 6a, 2-Phenyl-1H-indole-3-carboxaldehyde O-methyl oxime]
- IC50 at 20 h [5]: 48 ± 5.1 µM

Compound: c1ccc(-c2nc3ccccc3[nH]2)cc1 [Compound 11, 2-phenylbenzimidazole, reference compound]
- viability at 50 µM ([1]; Homo sapiens, HEK293, read-out: NFκB assay % survival): 86.2 ± 18%
- inhibition at 50 µM ([3]; Mus musculus, RAW264.7, 20 h, read-out: Nitrite assay % inhibition): 13.8 ± 6.4%
- viability at 50 µM ([2]; Mus musculus, RAW264.7, 20 h, read-out: Nitrite assay % survival): 97.7 ± 5.6%
- inhibition at 50 µM ([4]; Homo sapiens, 6 h, read-out: NFκB assay % inhibition): 73.6 ± 3.1%
- IC50 ([4]; Homo sapiens, 6 h, read-out: NFκB assay IC50): 11.2 ± 0.3 µM

Compound: c1ccc(-c2cc3ccccc3[nH]2)cc1 [Compound 1, 2-phenylindole]
- NFκB assay % survival [1]: 113.1±2.8%
- Nitrite assay % inhibition ([3]; 50 µM): 60.4±2.2%
- Nitrite assay % survival [2]: 87.3±3.9%
- NFκB assay % inhibition ([4]; 6 h, 50 µM): 72.3±5%

Compound: Nc1ccccc1C#Cc1cc(F)cc(F)c1 [10ae′, 2-((3,5-Difluorophenyl)ethynyl)aniline]
- IC50 at 20 h [5]: 42.9 ± 5.1 µM
